{"source": "patent US20110201023A1", "about": "“MANNOSE 6-PHOSPHATE-BINDING ANTIBODIES AND THEIR USES” (UNIVERSITATSKLINKUM HAMBURGEPPENDORF, priority 2008, published 2011)", "key": {"scFv M6P-1": {"molecular_target": "scFv M6P-1", "experiment": "ELISA inhibition study: binding of scFv M6P-1 to immobilized PMP-BSA", "parameters": "species or system rabbit", "conditions": "for IC50: scFv 0.6 μg/ml preincubated 1 h at 37° C. with 0.01 to 100 mM inhibitor, 45 pmol/cup PMP-BSA, read-out: 50% inhibition (IC50 value) of scFv M6P-1 binding to PMP-BSA; for inhibition of the binding of scFv M6P-1 to PMP-BSA: even at high concentrations (0.01 to 100 mM tested)", "method": "ELISA was performed according to the protocol published in Phage-Display: A Laboratory Manual, Cold Spring Harbor Laboratory Press, New York (2001), protocol 19.8, pages 19.29-19.31. For ELISA using monoclonal phage or soluble scFv, PMP-BSA was immobilized by addition of 2.25 pmol neoglycoconjugate (45 pmol PMP ligand, solution in 50 mM carbonate buffer, pH 9.2) to each cup of the ELISA plates (MaxiSorp, Nunc) and overnight incubation at 4° C. Phages were detected using an anti-M13 monoclonal antibody (mAb) HRP-conjugate (GE Healthcare, Freiburg, Germany) and diammonium 2,2′-azino-bis(3-ethylbenzothiazoline-6-sulfonate (AzBTS-(NH4)2, Sigma-Aldrich) as substrate. For scFv-ELISA against PMP-BSA, purified scFv was added at a starting concentration of 5 μg/ml. Bound scFv was detected by incubation with anti-c-myc mAb (gift from Dr. C. R. MacKenzie, NRC of Canada, Ottawa, Canada) and HRP-conjugated goat-anti-mouse IgG H+L (Dianova, Hamburg, Germany). For ELISA inhibition studies, 45 pmoles PMP-BSA were immobilized on ELISA plates. Monomeric scFv M6P-1 was freshly prepared by gelfiltration (see above). Antibody fragment scFv (0.6 μg/ml final concentration) was preincubated for 1 h at 37° C. with or without 0.01 to 100 mM of mannose, glucose, glucose-6-phosphate (Glc6P), Fru1P, or Man6P. 50 μl scFv M6P-1 were added to PMP-BSA (45 pmol/cup ligand concentration). Bound scFv M6P-1 was quantified after incubation (i) with an antibody directed against the c-myc tag of the antibody scFv M6P-1 and (ii) a HRP-conjugated goat-anti-mouse H/L antibody. The […] reaction was measured spectrophotometrically at OD405. All data were measured in quadruplicates and the standard deviation from the mean is indicated. The data were analyzed using Origin version 6.0 software (MicroCal, Northampton, USA) and fitted to a 4 parameter logistic function. The data obtained for inhibition by Man6P and Fru1P were globally fitted to the four replicate data sets, each separately."}, "[1]": {"tested_on": "scFv M6P-1 conjugated beads / [125I]ASA (human arylsulfatase A)", "experiment": "Immunoprecipitation of [125I]ASA with scFv M6P-1 conjugated beads", "format": "binding", "method": "Monomeric or dimeric scFv M6P-1 (about 1 mg/ml in PBS, pH 7.2) isolated by gel filtration (see above) was chemically immobilized to AminoLink Plus Coupling gel beads (Pierce, USA) following the suppliers instructions (1 mg scFv M6P-1 was coupled to 2 ml of settled beads). Human arylsulfatase A (ASA)(kindly provided by Dr. […]; Institute for Biochemistry, University of Bielefeld, Germany) was purified by affinity chromatography from media of BHK cells which overexpress the enzyme as described by Sommerlade et al. (1994) Biochem. J. 297, 123-130 and iodinated with IODO-GEN (Pierce) according to the manufacturer's instructions yielding [^125I]ASA with a specific activity of 2 μCi/μg. [^125I]ASA (400,000 cpm) was incubated with 50 μl scFv M6P-1 conjugated beads in 10 mM phosphate buffered saline pH 7.4 containing 0.05% Triton X-100 in a final volume of 0.5 ml in the absence or presence of increasing concentrations of Man6P for 10 h at 4° C. Subsequently, the beads were spun down at 1,200×g for 20 sec, and the supernatant was removed. The beads were washed three times with ice-cold binding buffer, twice with 1 mM phosphate buffered saline pH 7.4, and solubilized in SDS sample buffer. After removal of the beads, the supernatants were separated by SDS-PAGE (10% acrylamide), and the [^125I]ASA was visualized by autoradiography using Kodak films. The intensity of the [^125I]-labeled polypeptides was evaluated by densitometry. Alternatively, the [^125I]-labeled polypeptides were excised from the dried gel and counted in a γ-counter (Wizard 1470, Wallac, Turku, Finland)."}, "[2]": {"experiment": "Isothermal titration microcalorimetry", "conditions": "dimeric scFv M6P-1 in PBS pH 7.2; 10 mM Man6P injected; read-out: Kd for the binding of scFv M6P-1 to Man6P", "method": "The comparison of IC50 values allows the ranking of different ligands according to their relative affinities, however, the absolute affinities in terms of Kd can not be obtained. Therefore, isothermal titration microcalorimetry measurements using Man6P as a ligand were performed. Purified dimeric scFv M6P-1 obtained after gel filtration (both a monomer and a dimer fraction are obtained) was concentrated in Centriprep YM-10 (Millipore) to a final concentration of 2.7 mg/ml in PBS, pH 7.2 and dialysed for 1 h at 20° C. against 500 ml of PBS. The same dialysis buffer was used for preparation of a 10 mM solution of Man6P (Na^+ salt, Sigma-Aldrich). Microcalorimetric experiments were performed on an MCS isothermal titration calorimeter (Microcal Inc., Northampton, Mass., USA). The microcalorimeter cell was filled with the antibody solution (volume=1.5 ml) and Man6P in dialysis buffer loaded into the syringe of the microcalorimeter. Both solutions were thoroughly degassed prior to loading. After temperature equilibration, the ligand was injected into the cell in 4 μl portions and the evolved heat measured with the first injection (1 μl) not considered for data analysis. […] Dissociation constants were determined using the MicroCal Origin version 2.9 analysis software and non-linear least squares curve fitting (1 set of binding sites)."}, "PMP-BSA": {"tested_on": "PMP-BSA", "experiment": "Phage ELISA against PMP-BSA", "format": "binding", "conditions": "1:3 (v/v) dilutions of phage", "method": "The reactivity of the enriched polyclonal phage was tested in an ELISA checkerboard titration against different concentrations of PMP-BSA (3-100 pmol/cup calculated for PMP concentration). At 50 pmol/cup reactivity of the polyclonal phage was observed selectively for PMP-BSA but not for BSA. BstOI (Promega GmbH, Germany) restriction digest of 20 colony PCR products indicated the presence of 7 different clones (4× type A, 10× type B, 2× type C and 1× types D-G). Twelve colonies representing the different types of sequences (5× type B, 2× type A, 1× each of types C-G) were selected for phage production and 1:3 (v/v) dilutions of phage were tested in ELISA against PMP-BSA. […]\nELISA was performed according to the protocol published in Phage-Display: A Laboratory Manual, Cold Spring Harbor Laboratory Press, New York (2001), protocol 19.8, pages 19.29-19.31. […] Phages were detected using an anti-M13 monoclonal antibody (mAb) HRP-conjugate (GE Healthcare, Freiburg, Germany) and diammonium 2,2′-azino-bis(3-ethylbenzothiazoline-6-sulfonate (AzBTS-(NH4)2, Sigma-Aldrich) as substrate. For scFv-ELISA against PMP-BSA, purified scFv was added at a starting concentration of 5 μg/ml. Bound scFv was detected by incubation with anti-c-myc mAb (gift from Dr. C. R. MacKenzie, NRC of Canada, Ottawa, Canada) and HRP-conjugated goat-anti-mouse IgG H+L (Dianova, Hamburg, Germany)."}}}
{"molecule": "O=P(O)(O)OC[C@@]1(O)OC[C@@H](O)[C@@H](O)[C@@H]1O", "note": "[Fru1P, β-D-fructopyranose-1-phosphate]", "values": [{"measurement": "IC50", "setting": "scFv M6P-1", "result": 1100, "unit": "µM"}]}
{"molecule": "O=C[C@H](O)[C@@H](O)[C@H](O)[C@H](O)COP(=O)(O)O", "note": "[Glc6P, glucose 6-phosphate]", "values": [{"measurement": "inhibition of the binding of scFv M6P-1 to PMP-BSA", "setting": "scFv M6P-1", "result": "Neither"}, {"measurement": "effect on binding of [125I]-ASA to the antibody beads", "setting": "[1]; 5 mM", "result": "no effect"}]}
{"molecule": "O=C[C@@H](O)[C@@H](O)[C@H](O)[C@H](O)CO", "note": "[mannose]", "values": [{"measurement": "inhibition of the binding of scFv M6P-1 to PMP-BSA", "setting": "scFv M6P-1", "result": "Neither"}]}
{"molecule": "O=C[C@@H](O)[C@@H](O)[C@H](O)[C@H](O)COP(=O)(O)O", "note": "[Man6P, mannose 6-phosphate]", "values": [{"measurement": "IC50", "setting": "scFv M6P-1", "result": 2300, "unit": "µM"}, {"measurement": "inhibition of binding of [125I]-ASA to the antibody beads", "setting": "[1]; Man6P in a concentration of more than 2.5 mM", "result": "completely inhibited"}, {"measurement": "Ki", "setting": "[1]; calculated from densitometric evaluation of autoradiographs or radioactivity in excised bands", "result": 100, "unit": "µM"}]}
{"molecule": "scFv M6P-1: recombinant rabbit single-chain antibody fragment which specifically binds mannose 6-phosphate; VL SEQ ID NO:7, VH SEQ ID NO:8 (antibody, listed as Oryctolagus cuniculus, V domains shown, scFv linker not given) VH: QSVKESEGDLVKPGASLTLTCKASGFDFTWYTMNWVRQAPGKGLEWIACIGAGVYGSNYYASWAKGRFTISKASSTTVTLQMTSLTVADTATYFCARDGINGGYDIWGPGTLVTVSS VL: ELVMTQTESPVSAAVGGTVTIKCQSSQSVYNNRLAWYQQKPGQRPKLLIYSASTLASGVPSRFKGSGSGTQFTLTISDLEWGDAATYYCHGGYRSNDDRYAFSGGTELEIL", "values": [{"measurement": "total offered [125I]-ASA bound specifically to the scFv M6P-1 conjugated beads", "setting": "[1]; 10 h at 4° C., absence of Man6P", "result": "20-25%"}, {"measurement": "Kd", "setting": "[2]", "result": 28, "unit": "µM"}, {"measurement": "reactivity of monoclonal phage in ELISA against PMP-BSA", "setting": "PMP-BSA", "result": "reacted"}]}
